Entries after “also recorded” stand apart in the source; their conditions may differ. Marks after values point to notes of the source that are not given here.
Assays:
[1] = molecular target: T1, human D3 dopaminergic receptor (Homo sapiens, UniProt P35462); assay: Radioligand binding, human D3 receptor (CHO cell culture)
T1 construct: expressed in transfected cells; host or cells: CHO
Procedure: (§1) The test substances, biological materials and experimental protocols used in the study are described in Moguilevsky N. et al. (1994) Eur. J. […] List S. J. (1981) Proc. Natl. Acad. Sci.78:2620-2624; MacKenzie R. G. et al. (1994) Eur. J. Pharmacol. 266:79-85; Van Tol et al., (1992) Nature, 358:149-152. […] Filtermat A, Walac), then washed with cold buffer using a filtration unit ‘Cell Harvester’ (Brandel, Packard or Tomtec). The bound radioactivity is measured using a scintillation liquid (Formula 989 or Microscint 0, Packard) or solid (Meltilex B/HS, Wallac), and a scintillation counter (LS 6000, Beckman; Topcount, Packard; Betaplate, Wallac). […] Each experiment was performed in duplicate (n=2). In parallel, a positive control (concentration of reference substance causing 50% inhibition of radioligand specific binding) is tested to validate the assay. For competition experiments, membranes are incubated in the buffer containing the radioligand and increasing concentrations of unlabeled test substances. Each binding assay is validated with a reference compound tested in parallel. […] where BO and BI represent the total binding in the absence and presence of the unlabelled drug (in dpm/assay) and NSB is the amount of non specific binding (in dpm/assay). Analysis of raw data and pIC50 calculation is performed by computerized non-linear curve fitting methods using a set of equations describing competitive interactions between labelled and unlabeled ligands which obey the law of mass action. IC50 represents the concentration of the test substance inhibiting 50% of the specific binding of the radioligand. It is determined in competitive binding experiments by measuring the binding of a single concentration of a radioactive ligand at equilibrium with various concentrations of the unlabeled test substance. pIC50=−log IC50

[2] = molecular target: T2, D4.4 dopaminergic receptor (Homo sapiens, UniProt P21917); assay: Radioligand binding, D4.4 receptor (CHO cell culture)
T2 construct: expressed in transfected cells; host or cells: CHO
T2 sequence (P21917 1-419): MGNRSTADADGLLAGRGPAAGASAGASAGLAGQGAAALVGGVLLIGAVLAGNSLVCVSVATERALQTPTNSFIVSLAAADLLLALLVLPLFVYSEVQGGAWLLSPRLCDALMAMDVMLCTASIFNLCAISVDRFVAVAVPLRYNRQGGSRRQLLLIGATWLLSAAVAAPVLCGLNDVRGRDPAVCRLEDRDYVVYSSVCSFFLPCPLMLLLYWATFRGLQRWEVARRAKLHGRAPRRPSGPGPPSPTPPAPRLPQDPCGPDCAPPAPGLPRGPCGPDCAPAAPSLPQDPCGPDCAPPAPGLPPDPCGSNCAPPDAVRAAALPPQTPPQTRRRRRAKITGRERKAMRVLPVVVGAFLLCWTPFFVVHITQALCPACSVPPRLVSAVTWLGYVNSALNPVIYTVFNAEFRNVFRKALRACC
Procedure: as §1

[3] = molecular target: T3, 5-HT3 receptor (Homo sapiens, UniProt P46098); assay: Radioligand binding, 5-HT3 receptor; details: mean of duplicate, read-out: percent inhibition of control specific binding
T3 sequence (P46098 24-478): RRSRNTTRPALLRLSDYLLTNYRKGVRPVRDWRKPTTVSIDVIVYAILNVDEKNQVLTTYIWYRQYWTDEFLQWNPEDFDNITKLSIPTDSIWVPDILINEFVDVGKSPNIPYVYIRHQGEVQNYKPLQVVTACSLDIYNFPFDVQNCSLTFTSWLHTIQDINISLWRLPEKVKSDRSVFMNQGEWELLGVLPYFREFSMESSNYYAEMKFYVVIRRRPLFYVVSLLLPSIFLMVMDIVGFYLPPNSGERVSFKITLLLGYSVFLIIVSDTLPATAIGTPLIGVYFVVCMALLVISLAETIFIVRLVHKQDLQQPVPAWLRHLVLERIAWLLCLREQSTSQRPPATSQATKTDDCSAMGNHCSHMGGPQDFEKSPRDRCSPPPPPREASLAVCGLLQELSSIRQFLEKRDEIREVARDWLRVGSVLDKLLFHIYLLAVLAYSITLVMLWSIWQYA

[4] = tested on: vomiting induced by cisplatin in ferrets; assay: Cisplatin-induced emesis in ferrets, single oral administration; format: in vivo, ferret; details: for Proportion of animal vomiting: 60 min before cisplatin i.v., 5 h observation
Procedure: Cisplatin-induced emesis in ferrets is largely considered as the most suitable animal model for the study of drug activity against chemotherapy-induced vomiting in man (Georges L. King. Animal models in the study of vomiting. Can. J. Physiol. Pharmacol. 68, 260-268, 1988).
Three compounds, dixyrazine dihydrochloride and its (R) and (S) enantiomers were tested for their activity against vomiting induced by cisplatin in ferrets following single oral administration.
The study involved 14 groups of 8 male ferrets weighing between 0.93 kg and 1.45 kg purchased from the company MARSHALL FARMS (NEW YORK, U.S.). Groups were defined as follows: […]
group 1: control group dosed with the vehicle of test substances (sterile water),
group 2: method-control group dosed with a method-control substance, granisetron ([…], RBI®), at a dose of 0.3 mg/kg,
group 3 to 6: group dosed with diyyrazine dihydrochloride at 4 increasing doses of 7.5, 15, 30 and 60 mg/kg,
group 7 to 10: group dosed with the (R) enantiomer of dixyrazine dihydrochloride at 4 increasing doses of 7.5, 15, 30 and 60 mg/kg,
group 11 to 14: group dosed with the (S) enantiomer of drazine dihydrochloride at 4 increasing doses of 7.5, 15, 30 and 60 mg/kg.
On the day prior to the test, animals were fasted and allowed access only to water.
On the morning of the day of the study, free access to food was allowed for 30 minutes. Subsequently, animals were again put on to a water-only fast for 30 minutes before administration of the three compounds, the vehicle or the method-control substance which were administrated orally in a volume of 5 ml/kg.
Cisplatin was administrated by the intravenous route at a dose of 115 mg/m^2 and in a volume of 115 ml/m^2 (i.e. approximately at 10 mg/kg), 60 minutes after treatment. […] Emesis was characterised by abdominal contractions, which were associated with expulsion or attempted expulsion of stomach contents.
The time to onset of emesis was noted. The number of episodes of vomiting and the number of abdominal retches associated with episodes of emesis were also noted.

[5] = highest dose of 60 mg/kg p.o., 60 mg/kg

T1 sequence (P35462 whole entry): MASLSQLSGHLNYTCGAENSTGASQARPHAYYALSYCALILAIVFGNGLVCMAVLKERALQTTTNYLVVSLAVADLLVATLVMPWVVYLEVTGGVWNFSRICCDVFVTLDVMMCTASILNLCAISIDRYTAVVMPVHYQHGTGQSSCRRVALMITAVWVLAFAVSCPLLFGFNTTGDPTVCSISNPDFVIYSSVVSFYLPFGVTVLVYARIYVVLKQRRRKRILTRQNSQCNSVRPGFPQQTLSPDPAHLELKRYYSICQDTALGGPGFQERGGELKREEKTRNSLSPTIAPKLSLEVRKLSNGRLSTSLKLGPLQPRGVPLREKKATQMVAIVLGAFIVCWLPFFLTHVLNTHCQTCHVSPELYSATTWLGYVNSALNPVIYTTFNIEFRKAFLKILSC

## CC(CN1CCN(CCOCCO)CC1)CN1c2ccccc2Sc2ccccc21 (racemic) [Dixyrazine, 2-(2-(4-(2-methyl-3-(10H-phenothiazin-10-yl)propyl)-1-piperazinyl)ethoxy)ethanol, reference compound]
[1]; D3, 0.1 μM, mean of duplicate, read-out: percent inhibition of control specific binding
  inhibition at 0.1 µM: 84%
[1]; D3, 10 μM, mean of duplicate, 10 µM
  percent inhibition of control specific binding: 100%
[1]; D3, 10 μM, mean of duplicate, read-out: percent inhibition of control specific binding
  inhibition at 10 µM: > 90%
[1]; D3, competitive binding, read-out: Affinity pIC50 (-log IC50) (converted)
  IC50: 50.1 nM
[2]; D4.4, 0.1 μM, mean of duplicate, read-out: percent inhibition of control specific binding
  inhibition at 0.1 µM: 24%
[2]; D4.4, 10 μM, mean of duplicate, 10 µM
  percent inhibition of control specific binding: 104%
[2]; D4.4, 10 μM, mean of duplicate, read-out: percent inhibition of control specific binding
  inhibition at 10 µM: > 90%
[2]; D4.4, competitive binding, read-out: Affinity pIC50 (-log IC50) (converted)
  IC50: 398 nM
[3]; 5-HT3, 0.1 μM
  inhibition at 0.1 µM: < 10%
[3]; 5-HT3, 10 μM
  inhibition at 10 µM: 26%
[4]; 7.5 mg/kg p.o.
  Time to onset of emesis: 90 min
  Proportion of animal vomiting: 8/8
[4]; 15 mg/kg p.o.
  Time to onset of emesis: 76 min
  Proportion of animal vomiting: 5/8
[4]; 30 mg/kg p.o.
  Time to onset of emesis: 73 min
  Proportion of animal vomiting: 7/8
[4]; 60 mg/kg p.o.
  Time to onset of emesis: 81 min
  suppression of vomiting, number of animals: 5 animals out of 8
  Proportion of animal vomiting: 3/8*
[4]; [5]
  antiemetic effect (in words): induced an antiemetic effect
  effect on time to onset of emesis (in words): no effect; also recorded: did not alter this variable
[4]; highest dose of 60 mg/kg p.o., listed as dixyrazine dihydrochloride, 60 mg/kg
  antiemetic effect (in words): significantly reduce cisplatin-induced emesis
